In ChEMBL document CHEMBL3217646, “Inhibitors of bacterial tubulin target bacterial membranes in vivo” (Medchemcomm, 2013):
In brackets after ≈: the same amount, converted by molar mass. Activity calls are given as the source filed them. The rule behind the calls is not given here.

Legend:
Bacillus subtilis [1] = assay: Induction of membrane associated proteins mislocalization in Bacillus subtilis subsp. subtilis str. 168 assessed as reduction in GFP-MinD protein localization by fluorescence assay; assay type: functional, organism-based
Bacillus subtilis [2] = assay: Increase in bacterial membrane permeability in Bacillus subtilis subsp. subtilis str. 168 at 1 times MIC pre-treated for 5 mins and measured 30 mins post dye addition by propidium iodide dye based flow cytometry; assay type: functional, organism-based
Bacillus subtilis [3] = assay: Induction of transmembrane potential loss in Bacillus subtilis subsp. subtilis str. 168 assessed as lambda575/lambda530 fluorescence emission intensity ratio at 1 times MIC pre-treated for 20 mins and measured 15 mins post dye addition by DiOC2 dye based flow cytometry (reference value: 0.257 +/- 0.003 no unit); assay type: functional
Bacillus subtilis [4] = assay: Antimicrobial activity against Bacillus subtilis subsp. subtilis str. 168 after 18 hrs by macro-dilution method; assay type: functional; details: subsp. subtilis str. 168, 18 h
Bacillus subtilis [5] = assay: Protonophore activity in Bacillus subtilis subsp. subtilis str. 168 assessed as induction of rapid equlibration of delta-pH at 1 times MIC; assay type: functional, organism-based
Bacillus subtilis [6] = assay: Induction of transmembrane potential loss in Bacillus subtilis subsp. subtilis str. 168 at 1 times MIC pre-treated for 5 mins and measured 15 mins post dye addition by DiOC2 dye based flow cytometry; assay type: functional, organism-based
C2C12 [7] = assay: Induction of membrane disruption in mouse C2C12 cells assessed as change in oxygen consumption rate; assay type: functional, cell-based
C2C12 [8] = assay: Induction of membrane disruption in mouse C2C12 cells assessed as maximum increase in oxygen consumption rate at 0.6 uM; assay type: functional, cell-based
C2C12 [9] = assay: Induction of membrane disruption in mouse C2C12 cells assessed as increase in oxygen consumption rate at 0.1 to 1.2 uM; assay type: functional, cell-based
Bacillus subtilis [10] = assay: Induction of transmembrane potential loss in Bacillus subtilis subsp. subtilis str. 168 assessed as lambda575/lambda530 fluorescence emission intensity ratio at 1 times MIC pre-treated for 5 mins and measured 15 mins post dye addition by DiOC2 dye based flow cytometry; assay type: functional
Bacillus subtilis [11] = assay: Protonophore activity in Bacillus subtilis subsp. subtilis str. 168 assessed as induction of rapid equlibration of delta-pH at 30 uM; assay type: functional, organism-based
C2C12 [12] = assay: Induction of membrane disruption in mouse C2C12 cells assessed as maximum increase in oxygen consumption rate at 30 uM; assay type: functional, cell-based

Structure (SMILES)	Activity (Bacillus subtilis [1])	Activity (Bacillus subtilis [2])	Ratio (Bacillus subtilis [3])	MIC (Bacillus subtilis [4]) [µM]	Activity (Bacillus subtilis [5])	Activity (Bacillus subtilis [6])	Activity (C2C12 [7])	Activity (C2C12 [8])	Activity (C2C12 [9])	Ratio (Bacillus subtilis [10])	Activity (Bacillus subtilis [11])	Activity (C2C12 [12])
CO/N=C(\C(=O)N[C@@H]1C(=O)N2C(C(=O)O)=C(COC(N)=O)CS[C@H]12)c1ccco1 [CEFUROXIME]	inactive	inactive	0.306	20 (≈ 8.49 µg/mL)								
O=C/C=C/c1ccccc1 [CINNAMALDEHYDE]	Active	Active		2500 (≈ 330 µg/mL)	inactive	Active						
CC(C)c1c(O)ccc2c1CC[C@H]1C(C)(C)CCC[C@]21C [TOTAROL]	Active	Active		2.5 (≈ 0.716 µg/mL)	inactive	Active	inactive					
NC(=O)c1c(F)ccc(OCc2nc3cc(Cl)cnc3s2)c1F	inactive	inactive		2.5 (≈ 0.889 µg/mL)		inactive						
N#CC(C#N)=NNc1cccc(Cl)c1 [CARBONYL CYANIDE M-CHLOROPHENYLHYDRAZONE]	Active	inactive		10 (≈ 2.05 µg/mL)	Active			Active	Active	0.045		
C[n+]1cc2c3c(ccc2c2ccc4cc5c(cc4c21)OCO5)OCO3 [SANGUINARIUM]		Active		10	inactive	Active						
Oc1ccc(Cl)cc1Cc1cc(Cl)cc(Cc2cc(Cl)ccc2O)c1O	Active	inactive		0.16 (≈ 0.0656 µg/mL)	inactive	Active					Active	Active
COC(=O)CC1Cc2cc3cc(OC)c(-c4c(OC)cc5cc6c(c(O)c5c4O)C(=O)OC(CC(=O)OC)C6)c(O)c3c(O)c2C(=O)O1 (stereo unspecified) [VIRIDITOXIN]	Active			0.63 (≈ 0.417 µg/mL)	inactive	inactive						
